Data: patent publication US20240245677A1, “SELECTED COMPOUNDS FOR TARGETED DEGRADATION OF BRD9” (C4 THERAPEUTICS, INC., priority 2021, published 2024)
One block for each compound: values may come before it.

How the values were obtained:
GSPT1 = target: T1, GSPT1 (Homo sapiens, UniProt P15170+Q96SW2); experiment: GSPT1 HiBiT degradation assay in HEK293T.114 cells; format: cell-based; settings: 6 hours
T1 construct: CRISPR-edited to endogenously express HiBiT tagged GSPT1; host or cells: HEK293T.114
T1 sequence (P15170 whole entry): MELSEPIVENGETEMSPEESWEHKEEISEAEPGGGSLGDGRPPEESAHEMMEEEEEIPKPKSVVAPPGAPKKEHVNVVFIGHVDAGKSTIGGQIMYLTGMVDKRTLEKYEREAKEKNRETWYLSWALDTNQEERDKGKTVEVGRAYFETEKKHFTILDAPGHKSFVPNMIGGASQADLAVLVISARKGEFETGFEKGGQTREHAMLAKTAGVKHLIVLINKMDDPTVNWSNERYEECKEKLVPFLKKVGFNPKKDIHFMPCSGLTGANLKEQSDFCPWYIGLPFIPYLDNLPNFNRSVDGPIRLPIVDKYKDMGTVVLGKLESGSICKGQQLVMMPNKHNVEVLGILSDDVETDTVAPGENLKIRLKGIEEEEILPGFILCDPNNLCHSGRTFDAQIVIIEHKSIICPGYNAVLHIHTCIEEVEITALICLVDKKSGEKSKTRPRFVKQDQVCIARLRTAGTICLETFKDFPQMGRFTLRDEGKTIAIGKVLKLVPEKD
T1 sequence (Q96SW2 whole entry): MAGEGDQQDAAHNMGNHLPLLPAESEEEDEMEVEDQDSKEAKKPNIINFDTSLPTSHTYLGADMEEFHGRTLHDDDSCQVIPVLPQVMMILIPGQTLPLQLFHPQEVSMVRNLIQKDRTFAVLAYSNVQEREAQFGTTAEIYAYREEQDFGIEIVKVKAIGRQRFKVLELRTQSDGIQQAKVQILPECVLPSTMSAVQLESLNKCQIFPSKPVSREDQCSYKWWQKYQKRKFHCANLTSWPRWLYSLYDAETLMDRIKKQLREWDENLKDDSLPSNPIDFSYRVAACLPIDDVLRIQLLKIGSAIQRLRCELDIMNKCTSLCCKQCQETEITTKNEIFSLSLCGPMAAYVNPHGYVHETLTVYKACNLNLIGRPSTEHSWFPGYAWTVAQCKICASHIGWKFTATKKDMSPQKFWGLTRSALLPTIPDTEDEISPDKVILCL
T1 sequence (Q16531 2-1140 partner limits assumed): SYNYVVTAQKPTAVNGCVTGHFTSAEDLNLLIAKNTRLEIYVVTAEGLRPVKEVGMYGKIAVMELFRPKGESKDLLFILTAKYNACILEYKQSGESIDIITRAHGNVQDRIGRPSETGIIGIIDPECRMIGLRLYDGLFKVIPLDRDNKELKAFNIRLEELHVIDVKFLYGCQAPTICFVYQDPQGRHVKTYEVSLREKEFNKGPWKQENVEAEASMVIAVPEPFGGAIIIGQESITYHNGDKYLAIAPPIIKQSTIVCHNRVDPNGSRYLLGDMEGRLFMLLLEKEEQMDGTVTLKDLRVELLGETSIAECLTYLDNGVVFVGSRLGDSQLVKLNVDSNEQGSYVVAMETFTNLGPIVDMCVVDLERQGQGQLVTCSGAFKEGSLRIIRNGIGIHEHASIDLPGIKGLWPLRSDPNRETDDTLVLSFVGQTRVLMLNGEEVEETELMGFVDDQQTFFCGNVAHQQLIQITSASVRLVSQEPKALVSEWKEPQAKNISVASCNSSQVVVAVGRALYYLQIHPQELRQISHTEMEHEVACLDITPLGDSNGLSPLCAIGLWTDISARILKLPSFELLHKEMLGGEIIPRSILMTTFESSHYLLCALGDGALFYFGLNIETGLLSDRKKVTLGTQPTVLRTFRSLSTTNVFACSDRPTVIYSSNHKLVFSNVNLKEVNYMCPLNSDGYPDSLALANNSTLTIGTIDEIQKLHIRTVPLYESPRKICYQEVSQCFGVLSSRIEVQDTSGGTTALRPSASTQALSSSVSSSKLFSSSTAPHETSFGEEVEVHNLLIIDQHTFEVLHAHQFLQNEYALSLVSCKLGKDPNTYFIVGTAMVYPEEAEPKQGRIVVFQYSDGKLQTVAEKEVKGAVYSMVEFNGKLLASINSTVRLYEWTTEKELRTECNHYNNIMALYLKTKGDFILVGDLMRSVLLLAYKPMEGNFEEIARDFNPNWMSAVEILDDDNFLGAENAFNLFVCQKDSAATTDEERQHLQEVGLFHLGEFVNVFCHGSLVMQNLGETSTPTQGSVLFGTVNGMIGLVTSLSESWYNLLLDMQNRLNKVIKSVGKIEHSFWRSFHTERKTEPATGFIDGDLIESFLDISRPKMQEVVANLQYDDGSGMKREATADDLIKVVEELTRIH
Excerpt: This assay evaluated the off-target degradation of the cereblon neosubstrate, Eukaryotic peptide chain release factor GTP-binding subunit ERF3A (GSPT1), induced by treatment with Compound 1 as measured by luminescence using Nano-Glo HiBiT® Lytic Assay System in 293T cells CRISPR-edited to endogenously express HiBiT tagged GSPT1.
Nano-Glo® HiBiT Lytic Assay System was purchased from Promega (Catalog No. N3050, Madison, WI, USA). HEK293T cells were obtained from ATCC (Catalog No. CRL-3216, Manassas, VA, USA), and maintained in DMEM medium (Catalog No. 11995065, ThermoFischer Scientific, Waltham, MA, USA) supplemented with 10% heat inactivated FBS (Catalog No. 16000-044, Gibco, Grand Island, NY, USA) at 37° C. in an atmosphere of 5% CO2 in air. The HiBiT polypeptide tag was introduced into the N-terminus of the endogenous GSPT1 locus by CRISPR-Cas9 to produce the HEK293T.114 modified cell line. The HiBiT polypeptide allows reconstitution of NanoBiT enzyme following cell lysis and addition of the complementing LgBiT polypeptide that activates substrate to produce a luminescent signal that is directly proportional to the amount of HiBiT-tagged GSPT1.
HEK293T.114 cells were routinely sub-cultured to maintain cell density between 30-80% confluence, not to exceed 20 passages. Cells were washed with PBS, trypsinized for 5 minutes at 37° C., and resuspended in fresh growth media without phenol red. An aliquot was diluted 2× with Trypan Blue solution 0.4% (Catalog No. 15250061, ThermoFisher Scientific, Waltham, MA, USA) and cell count determined. Cell concentration was adjusted with growth media without phenol red to 2×10^5 cells/mL.
The 10 mM DMSO stock solutions of Compound 1 or CC0885 were serially diluted (half log) in DMSO to generate 11-point dose series (10000, 3160, 1000, 316, 100, 31.6, 10, 3.2, 1, 0.32, 0.1 μM) in an acoustic ready 384-well low dead volume microplate (Catalog No. LP-0200, Beckman Coulter Life Sciences, Indianapolis, IN, USA). Using an Echo 550 Acoustic Liquid Handler (Beckman Coulter Life Sciences, Indianapolis, IN, USA), 30 nL of serially diluted compound solutions were dispensed in duplicate to each 384-well black TC-treated microplate (Catalog No. 3571, Corning, Glendale, CA, USA). 30 nL DMSO was transferred to all control wells.
30 μL of HEK293T.114 cells suspended in growth media without phenol red at 2×10^5 cells/mL (6000 cells/well) were dispensed using a Multidrop Combi Reagent Dispenser (Catalog No. 5840300, ThermoFisher Scientific, Waltham, MA, USA) to each well of columns 1-23 of 384-well black TC-treated microplates containing duplicate concentration range of test compounds and DMSO controls. 30 μL of media was dispensed to column 24 as background positive control (P). Plates were spun briefly at 1000 rpm and cells were incubated at 37° C., 5% CO2 for 6 hours. Final concentration of DMSO was 0.1% for all samples.
Cellular GSPT1 protein level was determined based on quantification of HiBiT using Nano-Glo® HiBiT Lytic Assay System (Promega). 30 μL Nano-Glo Lytic Assay reagents were added to each well of columns 1-23 and luminescence was acquired on EnVision® Multilabel Reader (Catalog No. 2104-0010, Perkin Elmer Inc., Dumfries, VA, USA). Column 24 (cells without Nano-Glo reagent addition) was used as plate background or positive control (P). Cells treated in the absence of the test compound (0.1% DMSO vehicle) were the negative control (N)/
Percent response of compound-treated samples (T) were calculated by normalizing to the DMSO treated negative (N) controls on the same microtiter plate after background (i.e., positive control) signal subtraction:
Curve fit and DC50 (concentration that degrades 50% GSPT1) determination was performed by 4 parametric logistic fit analysis using software such as GraphPad Prism software (GraphPad Software, LLC, San Diego, CA, USA). […]

[1] = Competitive water activity study; format: physicochemical
Procedure: Competitive water activity experiments at 25° C. were conducted for hydrate Pattern A and anhydrate Pattern G. Pattern A, and Pattern G, were equilibrated at 25° C. in 6 different water activities with acetone/water mixtures. Obtained suspensions were stirred at 25° C. for 3 days and 7 days. Obtained suspensions were centrifuged and obtained solids were analyzed by XRPD immediately.
Competitive water activity experiments at 25° C. were conducted for hydrate Pattern A and anhydrate Pattern M. Pattern A, and Pattern M were equilibrated at 25° C. in 6 different water activities with acetone/water mixtures. Obtained suspension was stirred at 25° C. for 3 days and 7 days. Obtained suspensions were centrifuged and obtained solids were analyzed by XRPD immediately.

in vitro = settings: plasma, 3 h, 2 µM
Procedure: Plasma protein binding (PPB) of Compound 1 was evaluated in plasma from mice, rats, dogs, cynomolgus monkeys, and humans using ultracentrifugation.
Frozen plasma from CD-1 mice, Sprague-Dawley rats, beagle dogs, cynomolgus monkeys, and humans was purchased and stored at ≤−30° C. On the day of study, plasma samples of CD-1 mice, Sprague-Dawley rats, beagle dogs, cynomolgus monkeys and humans were thawed under running cold tap water and centrifuged to remove any particulates.
For the internal standard, telmisartan, a 1 mg/mL solution was prepared by dissolving 1.4 mg of telmisartan in 1.4 mL of DMSO, and stored at 4° C.
The 10 mM stock solution of each test compound was used to prepare 400 μM intermediate stocks in methanol. Then, a 2 μM working stock of each test compound was prepared for plasma from each species (mouse, rat, dog, monkey, and human) by spiking 12 μL of the 400 μM intermediate stock for each test compound into 2400 μL of thawed and prepared plasma from a test species.
400 μL of blank plasma for each species was transferred to a 0.5 mL Beckman tube (Part No. 343776, Beckman Coulter Life Sciences, Indianapolis, IN, USA) and centrifuged for 3 hours at 627000×g at 37° C. The supernatant was removed and kept at room temperature.
To prepare for ultracentrifugation, the rotor of the centrifuge was placed into an incubator and warmed up to 37° C. before centrifugation. The vacuum switch of the OPTIMA™ MAX-TL Ultracentrifuge (Beckman Coulter Life Sciences, Indianapolis, IN, USA) was turned on and the vacuum was reduced to less than 10 microns to warm up the system. The ultracentrifuge's parameters were set to the following: Temperature—37° C.; Time—3 hours; and Speed—627000×g. For each species and each test compound, 2.4 mL of working stock was mixed and pre-incubated for 45 minutes at 37° C. Then, 60 μL was separated and precipitated with 200 μL of acetonitrile containing internal standard and labeled as (TO), and 0.4 mL (triplicates) were transferred to Beckman 2 mL tubes (Part No. 344625, Beckman Coulter Life Sciences, Indiana, IN, USA).
For each species and each test compound, the triplicate 0.4 mL sample tubes were centrifuged for 3 hours at 627000×g at 37° C. […] At 45 minutes, 60 μL was separated, precipitated with 200 μL of acetonitrile containing internal standard and labelled as (T45). After completion of 3 hours, 60 μL of incubated samples were separated, precipitated with acetonitrile containing internal standard, and labeled as (T3).
After completing the 3 hours of centrifugation, 30 μl of the top fraction of supernatant from each sample tube was removed (free fraction) and precipitated with acetonitrile containing internal standard (labeled as top sample).
After removing 30 μL of the top fraction, remaining top and bottom layer were mixed thoroughly to make a uniform mixture. From this mixture, 30 μL of bottom sample was collected and precipitated with acetonitrile containing internal standard (labelled as bottom sample).
Matrix matching was done for crashed stability samples (TO, T45 and T3 samples) by adding 30 μL of a 50:50 mixture of blank plasma supernatant and phosphate-buffered saline (PBS), and for top and bottom samples, by adding 30 μL of blank plasma (kept at room temperature).
All the stability samples and centrifuged samples were vortexed at 1000 rpm for 5 minutes and centrifuged at 4000 rpm for 10 minutes. Supernatant from each sample was separated, diluted 2-fold with water, and analyzed in LC-MS/MS.
Samples (supernatant-free fraction and total plasma) were analyzed by LCMS-MS (no standards).

[2] = Acetone/water (v:v = 60:40), a.w. 0.8
[3] = Acetone/water (v:v = 86:14), a.w. 0.6
[4] = Acetone/water (v:v = 95:5), a.w. 0.4
[5] = Acetone/water (v:v = 98:2), a.w. 0.2

% GSPT1 Remaining, Mean (GSPT1; 0.100 nM): 106.2%
% GSPT1 Remaining, Mean (GSPT1; 0.316 nM): 99.3%
% GSPT1 Remaining, Mean (GSPT1; 1.00 nM): 96.4%
% GSPT1 Remaining, Mean (GSPT1; 3.15 nM): 101.9%
% GSPT1 Remaining, Mean (GSPT1; 10.0 nM): 107.2%
% GSPT1 Remaining, Mean (GSPT1; 31.5 nM): 102.5%
% GSPT1 Remaining, Mean (GSPT1; 100 nM): 102.6%
% GSPT1 Remaining, Mean (GSPT1; 317 nM): 100.9%
% GSPT1 Remaining, Mean (GSPT1; 1000 nM): 101.1%
% GSPT1 Remaining, Mean (GSPT1; 3161 nM): 103.2%
% GSPT1 Remaining, Mean (GSPT1; 9990 nM): 98.8%
Mean Emax (%) ± SD (GSPT1; GSPT1-HiBiT, HEK293T.114 cells): 92.85 ± 1.30%
DC50 (GSPT1; GSPT1-HiBiT, HEK293T.114 cells, read-out: Geometric Mean DC50): 1.93 nM
degradation of GSPT1 induced (GSPT1; positive control): > 95%
SMILES: Cc1ccc(NC(=O)NCc2ccc3c(c2)CN(C2CCC(=O)NC2=O)C3=O)cc1Cl (stereo not shown) [CC-885, reference compound]

SMILES: COc1cc(-c2cn(C)c(=O)c(C)c2C)cc(OC)c1CN1CC[C@H](N2CCN(c3ccc(N[C@H]4CCC(=O)NC4=O)cc3F)CC2)C(F)(F)C1 [Pattern A and Pattern M]
XRPD-3 days ([1]; Acetone, a.w. 0.0): Pattern N
XRPD-7 days ([1]; Acetone, a.w. 0.0): Pattern N
XRPD-3 days [1, 2]: Pattern K
XRPD-7 days [1, 2]: Pattern A
XRPD-3 days [1, 3]: Pattern N
XRPD-7 days [1, 3]: Pattern N
XRPD-3 days [1, 4]: Pattern N
XRPD-7 days [1, 4]: Pattern N
XRPD-3 days [1, 5]: Pattern N
XRPD-7 days [1, 5]: Pattern N
XRPD-3 days ([1]; Water, a.w. 1.0): Pattern K
XRPD-7 days ([1]; Water, a.w. 1.0): Pattern A

% Remaining at 3 hours (in vitro; CD-1, mouse): 107.21%
% Remaining at 3 hours (in vitro; Sprague-Dawley, rat): 88.82%
% Remaining at 3 hours (in vitro; beagle, dog): 111.42%
% Remaining at 3 hours (in vitro; human): 91.67%
% Remaining at 3 hours (in vitro; monkey): 115.61%
SMILES: CC(=O)CC(c1ccccc1)c1c(O)c2ccccc2oc1=O (stereo not shown) [Warfarin, reference compound]

SMILES: COc1cc(-c2cn(C)c(=O)c(C)c2C)cc(OC)c1CN1CC[C@H](N2CCN(c3ccc(N[C@H]4CCC(=O)NC4=O)cc3F)CC2)C(F)(F)C1 [Pattern A, Pattern C, Pattern D, and Pattern E]
XRPD-7 days ([1]; Acetone, a.w. 0.0): Pattern B
XRPD-7 days ([1]; Acetone/water (v:v = 36:64), a.w. 0.9): Pattern K
XRPD-7 days ([1]; Acetone/water (v:v = 76:24), a.w. 0.7): Pattern K
XRPD-7 days ([1]; Acetone/water (v:v = 92:8), a.w. 0.5): Pattern B
XRPD-7 days ([1]; Acetone/water (v:v = 97:30), a.w. 0.3): Pattern B
XRPD-7 days ([1]; Acetone/water (v:v = 99.5:0.5), a.w. 0.1): Pattern B
XRPD-7 days ([1]; Water, a.w. 1.0): Pattern K

SMILES: COc1cc(-c2cn(C)c(=O)c(C)c2C)cc(OC)c1CN1CC[C@H](N2CCN(c3ccc(N[C@H]4CCC(=O)NC4=O)cc3F)CC2)C(F)(F)C1 [Pattern A and Pattern G]
XRPD-3 days ([1]; Acetone, a.w. 0.0): Pattern B
XRPD-7 days ([1]; Acetone, a.w. 0.0): Pattern N
XRPD-3 days [1, 2]: Pattern K
XRPD-7 days [1, 2]: Pattern K
XRPD-3 days [1, 3]: Pattern B
XRPD-7 days [1, 3]: Pattern B
XRPD-3 days [1, 4]: Pattern B
XRPD-7 days [1, 4]: Pattern N
XRPD-3 days [1, 5]: Pattern B
XRPD-7 days [1, 5]: Pattern N
XRPD-7 days ([1]; Water, a.w. 1.0): Pattern K
